From ChEMBL document CHEMBL2375234, “Rhazinilam-Leuconolam-Leuconoxine Alkaloids from Leuconotis griffithii” (J Nat Prod, 2013)
Values after ≈ are worked out from the molar mass of the structure shown.

Assays:
KB = assay: Cytotoxicity against human KB cells; type: functional, cell-based
[1] = Inhibition of p-gp in multidrug-resistant human KB cells assessed as increase in vincristine-mediated cytotoxicity; type: cell-based

Row | SMILES | IC50 (KB) [µg/mL] | IC50 [1] [µg/mL]
1 | CC[C@@]12CCCN3C(=O)C[C@@]4(O)c5ccccc5N(C(=O)CC1)C324 (some centres undefined) | 12 (≈ 36.8 µM) | –
2 | CC[C@@]12CCC(=O)Nc3ccccc3-c3ccn(c31)C(=O)C2 [NOR-RHAZINICINE] | 12 (≈ 40.8 µM) | –
3 | CC[C@@]12CCCN3CC[C@H]4c5ccccc5N(C(=O)CC1)C432 (some centres undefined) | 12 (≈ 40.5 µM) | –
4 | CC[C@@]12CCCN3CC[C@@]4(O)c5ccccc5N(C(=O)CC1)C324 (some centres undefined) | – | 9.34 (≈ 29.9 µM)
